Literature values as cited in patent US20070026383A1, “Methods and compositions for extracting membrane proteins” (Quintessence Biosciences, Inc., priority 2005, published 2007).

Columns and labels:
[1] = not given; remark: listed apart in the source

CCc1c2c(nc3ccc(O)cc13)-c1cc3c(c(=O)n1C2)COC(=O)[C@]3(O)CC [SN-38, 7-ethyl-10-hydroxycamptothecin]
fold higher antitumor activity than Irinotecan (relative to Irinotecan): 100-1,000 fold

CCc1c2c(nc3ccc(OC(=O)N4CCC(N)CC4)cc13)-c1cc3c(c(=O)n1C2)COC(=O)[C@]3(O)CC [NPC, 7-ethyl-10-(4-amino-1-piperidino)carbonyloxycamptothecin]
antitumor activity in vitro [1]: weak antitumor activity

CCc1c2c(nc3ccc(OC(=O)N4CCC(NCCCCC(=O)O)CC4)cc13)-c1cc3c(c(=O)n1C2)COC(=O)C3(O)CC (centres unmarked) [APC, 7-ethyl-10[4-N-(5-aminopentanoic acid)-1piperidino]carbonyloxycamptothecin]
antitumor activity in vitro [1]: weak antitumor activity
fold weaker antitumor activity compared with SN-38 (relative to SN-38): 500 fold

CCc1c2c(nc3ccc(O[C@@H]4O[C@H](C(=O)O)[C@@H](O)[C@H](O)[C@H]4O)cc13)-c1cc3c(c(=O)n1C2)COC(=O)[C@]3(O)CC [SN-38G, 10-O-glucuronyl-SN-38]
activity of metabolite (glucuronide of SN-38): inactive
